Reference: patent publication EP1233748B1, “RETINALDEHYDE COMBINATION WITH ANTIFUNGAL ACTIVITY” (Pierre Fabre Dermo-Cosmetique, priority 1999, dated 2001)

Legend:
Type in all cases: cell-based
[1] = tested on: Malassézia furfur IP 1363-82; Malassezia furfur sauvage; assay: Combination study, checkerboard method on microplate, CMF in association and FIC Index; details: for CMF % Associés: product in association (Rétinal + Ald. C11), checkerboard, 32°C
Experimental: (§1) *souche : Malassézia furfur IP 1363-82 Malassezia furfur sauvage collecté auprès d'un pityriasis versicolor chez un patient hospitalisé au Centre Hospitalier Régional de Toulouse Rangueil (France). *milieu de culture : Dixon modifié (sous forme de bouillon et sous forme gélosée par ajout d'agar) *appareillage : microplaques stériles Nunc ® Nunclon à 96 puits eau distillée stérile tubes à essais stériles étuve à 32°C spectrophotomètre et cuves adaptées billes de verre stériles *produits : les solutions-mères des produits cités ci-dessous ont été préparés comme suit : • Trans rétinal :solution à 1% dans 20% d'éthanol 95 complétée avec de l'eau distillée stérile. • undécanal :solution à 1% dans 10% de Tween 80 complétée par de l'eau distillée stérile.
Des solutions-mères comme décrites précédemment égales à deux fois la CMF sont réalisées. La méthode de l'échiquier rapportée sur microplaque est utilisée pour croiser les séries de dilution au demi de chaque actif. Après ensemencement et incubation à 32°C, on procède à la lecture des CMF. Un repérage des CMF donnant lieu à des synergies peut alors se faire. Nous obtenons après calcul des FIC Index le tableau suivant :
La synergie peut être mise en évidence par le calcul des Index FIC (Fractional Inhibitory Concentration) des produits. Pour cela, on mesure la valeur de la CMF (ou Concentration Minimale Fongistatique) des principes actifs à tester vis-à-vis d'un type de germe.
Le FIC d'un produit A est défini comme : FICA =(CMF du produit A en association)/(CMF du produit A seul) [formula]
L'association de deux antifongiques A et B est synergique si la somme FIC des rapports (FICA et FICB) est inférieure ou égale à 0,75.
Plus la valeur FIC est faible, plus la synergie est importante.
On considère qu'il y a simple additivité pour des valeurs de FIC comprises entre 0,75 et 1,1 et indifférente dans l'intervalle compris entre 1,1 et 2; au-delà, l'association est notée antagoniste.

Malassezia = assay: Antifungal activity on Malassezia, general statements in the description; details: alone
[2] = tested on: Malassézia furfur IP 1363-82; Malassezia furfur sauvage; assay: Determination of the minimal fungistatic concentration (CMF), serial two-fold dilution in Dixon broth in microplates; details: product alone, 32°C, 48 to 72 h
Experimental: as §1
• une distribution de 100µl de bouillon Dixon est réalisée dans chaque cupule de la microplaque stérile. • une distribution de 100µl des différents produits a lieu dans une cupule, une cupule par produit (on est alors à 50% d'actif). • une série de dilutions sériées au demi est ensuite réalisée contre un témoin stérilité du milieu de culture et un autre témoin de la vigueur de la souche.
L'ensemencement de la microplaque a lieu sous atmosphère stérile après préparation de l'inoculum fongique comme suit : […]

Row | SMILES | CMF % Associés [1] | action sur les levures telles Malassezia (Malassezia) | CMF % Seuls [2] | FIC Index ([1]; sum of FIC for the association Rétinal + Ald. C11, synergy if <= 0,75)
1 | CCCCCCCCCCC=O [Ald. C11, undécanal] | 0,0001 – 0,03% |  |  | 
2 | CC1=C(/C=C/C(C)=C/C=C/C(C)=C/C=O)C(C)(C)CCC1 [Rétinal, Trans rétinal] | 0,06 – 0,25% | ne possède pas d'action notoire | 0,25 – 0,5% | 0,51 à 0,75
